Reference: patent US20070056052A1, “Methods of generating knock-out rodents” (priority 2001, published 2007)

How the values were obtained:
NMD = assay: Inhibition of NMD with a protein synthesis inhibitor; settings: preliminary
Source text: The major drawbacks to using the RNA-based cDNA assay are that the gene-specific RNA may not be produced in an easily collectable tissue and mutant RNA may be lost to a great extent by NMD. […] NMD can be minimized by pre-treating collected cells, such as white blood cells, with a protein synthesis inhibitor before RNA collection. This approach has been successful for the yeast gap repair p53 assay (Flaman et al., 1995; Andreutti-Zaugg et al., 1997) and may be extrapolated to in vivo studies by the administration of a protein synthesis inhibitor to rat pups prior to tissue collection. […] The problem of a gene-specific RNA not being produced in tail tissue may be reduced by extending the range of biopsy tissues collected from viable rats, e.g., WBC, liver, skin, etc. In the future as it becomes possible to cryopreserve rat sperm from F1 male rats of mutagenized fathers, their sperm can be frozen and a wide variety of organ-specific RNAs could also be collected and stored, along with DNA from tails or spleens. DNAs or RNAs from a large number of rats could be screened and the appropriate frozen sperm used for the mutant rat recovery via in vitro fertilization and implantation. […]

[1] = even at high doses; cited from earlier work
NMD of hMSH2 and hMLH1 = settings: treatment of freshly drawn whole blood; cited from earlier work
CYP1A1 RNA mutant allele = settings: cell line with a CYP1A1 mutation; cited from earlier work
mutated HEXA allele mRNA = settings: increased from undetectable; cited from earlier work

## CC[C@H]1CN2CCc3cc(OC)c(OC)cc3[C@@H]2C[C@@H]1C[C@H]1NCCc2cc(OC)c(OC)cc21 [emetine]
NMD
  inhibition of NMD: preliminary success in inhibiting NMD

## Gentamicin
[1]
  short-term toxicity profile: very low short-term toxicity profile even at high doses

## COc1ccc(C[C@H](N)C(=O)N[C@H]2[C@@H](O)[C@H](n3cnc4c(N(C)C)ncnc43)O[C@@H]2CO)cc1 [puromycin]
NMD of hMSH2 and hMLH1
  NMD of hMSH2 and hMLH1: suppressed
CYP1A1 RNA mutant allele
  steady-state level of CYP1A1 RNA mutant allele: fully restored

## C[C@@H]1C[C@@H]([C@H](O)CC2CC(=O)NC(=O)C2)C(=O)[C@@H](C)C1 [cyclohexamide]
Mutated HEXA allele mRNA
  mRNA levels of the mutated HEXA allele: 40 % of the wild-type allele
